Data: patent US20100234433A1, “GLYCOGEN PHOSPHORYLASE INHIBITOR COMPOUND AND PHARMACEUTICAL COMPOSITION THEREOF” (priority 2007, published 2010)

Experiments:
male CD rats = assay: In vivo glucagon challenge model; set-up: species or system rat; conditions: glucagon 10 ug/kg + Sandostatin i.v. 2 hr after dosing, serum glucose 0-20 min
Description: Jugular vein cannulated male CD rats (220-260 g) (Charles Rivers, Raleigh, N.C.) were received 1-2 days after cannulation, housed individually on Alpha-Dri™ bedding (Shepherd Specialty Papers, Inc., Kalamazoo, Mich.) with free access to food (Lab Diet 5001, PMI Nutrition International, Brentwood, Mo.) and water and maintained on a 12 h light/dark cycle at 21° C. and 50% relative humidity for 3-4 days prior to the glucagon challenge studies. On the day of the study, the rats were sorted by body weight into treatment groups (N=4-5) and housed individually in shoe box cages with clean Alpha-dri bedding. The cannula lines were opened by removal of 0.2 ml blood and flushed with 0.2 ml sterile saline. After a one hour acclimation, blood samples were collected to determine basal glucose and the rats were orally dosed with vehicle (5% DMSO: 30% Solutol HS15: 20% PEG400: 45% 25 mM N-methylglucamine) or drug (5 ml/kg). Two hr after drug dosing, a time zero blood sample (0.4 ml) was collected for determination of glucose and the rats were dosed through the jugular vein with Sandostatin, 0.5 mg/kg, (Novartis Pharmaceuticals Corp., East Hanover, N.J.) and glucagon, 10 ug/kg (Bedford Laboratories, Bedford, Ohio). Blood samples were collected after 10 and 20 min for glucose determination. Whole blood was placed in a Terumo Capiject blood collection tube (Terumo Medical. Corp., Elkton, Md.), allowed to sit at room temperature for 20-30 minutes and then centrifuged (3,000×G) to obtain serum. Serum levels of glucose were determined using an Olympus AU640™ clinical chemistry immuno-analyzer (Olympus America Inc., Melville, N.Y.). The % reduction (% R) of the vehicle glucose AUG was calculated for each drug treatment using the formula % reduction=100*1−(AUG drug/AUC vehicle), where AUG was calculated from serum glucose values using the equation AUG=(T0+T10)/2*10+(T10+T20)/2*10−(T0*20).

[1] = molecular target: T1, human liver glycogen phosphorylase a (HLGPa) (Homo sapiens, UniProt P06737); assay: Human liver glycogen phosphorylase a enzymatic activity assay; type: biochemical; conditions: 15 nM HLGPa, coupled resorufin fluorescence readout; assay run with and without 10 mM glucose, condition of the value not stated
T1 construct: creating a full-length cDNA fused at the 5′ end to codons for methionine-glycine-alanine-histidine; 6x histidine tag (leader Met-Gly-Ala-His6-Gly-Gly) (N); Tev protease cleavage site (Glu-Asn-Leu-Tyr-Phe-Gln-Gly-Gly) (N); made in house; host or cells: E. coli (bacterial expression plasmid pTXK1007LTev)
T1 sequence (P06737 1-847): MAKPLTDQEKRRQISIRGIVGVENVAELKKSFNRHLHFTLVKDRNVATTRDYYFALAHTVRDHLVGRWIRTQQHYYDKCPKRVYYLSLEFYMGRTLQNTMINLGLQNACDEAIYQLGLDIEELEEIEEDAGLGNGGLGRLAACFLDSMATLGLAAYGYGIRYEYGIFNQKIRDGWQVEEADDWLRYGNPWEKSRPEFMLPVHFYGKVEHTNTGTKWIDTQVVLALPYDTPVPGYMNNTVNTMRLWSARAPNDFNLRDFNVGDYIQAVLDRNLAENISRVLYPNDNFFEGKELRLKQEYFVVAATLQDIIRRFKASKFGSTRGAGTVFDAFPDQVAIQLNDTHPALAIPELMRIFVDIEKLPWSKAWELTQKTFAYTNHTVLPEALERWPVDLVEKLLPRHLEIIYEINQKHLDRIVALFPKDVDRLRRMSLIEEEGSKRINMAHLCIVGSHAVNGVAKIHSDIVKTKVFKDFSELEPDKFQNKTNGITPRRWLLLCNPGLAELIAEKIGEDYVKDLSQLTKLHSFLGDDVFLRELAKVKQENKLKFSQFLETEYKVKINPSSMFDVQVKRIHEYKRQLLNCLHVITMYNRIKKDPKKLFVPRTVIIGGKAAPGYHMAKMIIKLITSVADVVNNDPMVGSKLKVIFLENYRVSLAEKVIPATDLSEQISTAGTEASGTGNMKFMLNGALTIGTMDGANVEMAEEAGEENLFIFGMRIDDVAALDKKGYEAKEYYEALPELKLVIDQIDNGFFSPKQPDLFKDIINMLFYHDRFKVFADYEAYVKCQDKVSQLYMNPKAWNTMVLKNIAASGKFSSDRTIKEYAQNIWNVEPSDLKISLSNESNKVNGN
Description: The purified glycogen phosphorylase (GP) enzyme, wherein glycogen phosphorylase is in the activated “a” state, referred to as human liver glycogen phosphorylase a (HLGPa), can be obtained according to the following procedures.
Frozen purified glycogen phosphorylase (HLGPb) was thawed in at 4° C. then dialyzed overnight into 50 mM HEPES, 100 mM NaCl, pH 7.4. 15 mg of the dialyzed HLGPb, 3 mM ATP and 5 mM MgCl2 was incubated with 500 μl of the prepared Affi-Gel immobilized phosphorylase kinase beads equilibrated with 50 mM HEPES, 100 mM NaCl, pH 7.4. The degree of phosphorylation was monitored by following the increase in activity at 10 minute intervals using the assay system outlined below. […] MgCl2, 3.5 mM KH2PO4, 0.5 mM DTT, 0.4 mg/mL glycogen, 7.5 mM Glucose, 0.50 mM β-nicotinamide adenine dinucleotide (β-NAD), 3 U/mL phosphoglucomutase, and 5 U/mL glucose-6-phosphate dehydrogenase, Activity was monitored by following the reduction of NAD^+ at 340 nm. […]
An enzymatic assay was developed to measure the response of the activated form of glycogen phosphorylase (HLGPa) to small molecule (<1000 Da.) compounds. […] The change in fluorescence due to product formation was measured on a fluorescence plate reader (Molecular Devices SpectraMax M2) with excitation at 560 nm and emission at 590 nm.

IC50 [1]: 5 nM
SMILES: COCc1cc(C)c(NC(=O)Nc2cc(-c3ccc(OC)nc3)ccc2C(=O)N[C@H](C(=O)O)[C@@H](C)OC(C)(C)C)c(C)c1 [Example 1, O-(1,1-Dimethylethyl)-N-({2-{[({2,6-dimethyl-4-[(methyloxy)methyl]phenyl}amino)carbonyl]amino}-4-[6-(methyloxy)-3-pyridinyl]phenyl}carbonyl)-L-threonine]
% R (% reduction of the vehicle glucose AUC) (male CD rats; 0.5 mg/kg oral): 32%
% R (% reduction of the vehicle glucose AUC) (male CD rats; 2 mg/kg oral): 53%
% R (% reduction of the vehicle glucose AUC) (male CD rats; 5 mg/kg oral): 63%
% R (% reduction of the vehicle glucose AUC) (male CD rats; 15 mg/kg oral): 70%
